Results on three compounds are retold here after patent US20080268078A1, “Composition for inhibiting nitric oxide and/or prostaglandin E2 synthesis and method for inhibiting inflammation” (Yangsen Biotechnology Co., Ltd., priority 2007, published 2008).

Read-outs that look alike come from different tables or passages of the source.

Holding throughout (assay type): cell-based, murine
For data set [1], the system named is nitric oxide synthesis in RAW 264.7 cells. Kind of data set: Suppression of nitric oxide synthesis (nitrite, Griess reagent) in LPS-stimulated RAW 264.7 cells. The conditions noted are these: Mus musculus, read-out: IC50 (inhibitory concentration at 50%) of nitric oxide synthesis. The method, then:
(§1) The murine macrophage/monocyte RAW 264.7 cells were obtained from the American Type Culture Collection (ATCC) and maintained in Dulbecco's modified Eagle's medium (DMEM) with 10% fetal bovine serum at 37° C. in 5% CO2 humidified air. In this example, cells were plated at a density of 10^6 cells/ml in 96-well plates for 24 hours, and then stimulated with LPS (100 ng/ml) in the presence of different concentrations of butylidene phthalide, citronellol, or geraniol. After 20 hours, the supernatant of the medium was collected and analyzed. In nitric oxide analysis, the concentration of butylidene phthalide was 250 μM, 500 μM, and 1000 μM, the concentration of citronellol was 50 μM, 500 μM, and 750 μM, and the concentration of geraniol was 50 μM, 500 μM, 750 μM, and 1000 μM, separately. In the control group, the cells were not treated with butylidene phthalide, citronellol, or geraniol. Because nitric oxide was unstable, nitrite was detected (Green et al., 1981; Kang et al., 1999a). 80 μl of the culture medium were mixed with an equal volume of Griess reagent (0.1% naphthylethylenediamine dihydrochloride and 1% sulfanilamide in 5% phosphoric acid), and then the absorbance at 550 nm was measured. The nitrite concentration was determined using a curve calibrated on sodium nitrite standards. […] Referring to FIGS. 1a-1c, butylidene phthalide, citronellol, and geraniol can suppress the synthesis of nitric oxide, wherein the suppression ability of citronellol was better than butylidene phthalide or geraniol, separately.

For data set [2], the system named is prostaglandin E2 synthesis in RAW 264.7 cells. Kind of data set: Suppression of prostaglandin E2 synthesis (EIA) in LPS-stimulated RAW 264.7 cells. Particulars: Mus musculus, read-out: IC50 of prostaglandin E2 synthesis. How it is done: as §1
The same procedure carried out in Example 1 was repeated with the exception that the detection of the nitric oxide was changed to detect prostaglandin E2 by prostaglandin E2-monoclonal enzyme immunoassay kit (EIA, Cayman Chem., Ann Arbor, Mich.). The concentration of butylidene phthalide was 5 μM, 50 μM, 250 μM, 500 μM, and 1000 μM, the concentration of citronellol was 50 μM, 500 μM, and 750 μM and the concentration of geraniol was 50 μM, 500 μM, and 750 μM, separately. […]

Another data set deals with RAW264.7 cell. As to the kind of experiment: Cell viability assay (MTT). The conditions noted are these: 50 μM to 1000 μM (citronellol to 750 μM), LPS-stimulated, 20 hours.
The mark [3] stands for this setting: RAW264.7, RAW 264.7 cells, LPS 100 ng/ml, 20 hours, nitrite by Griess reagent.
Where [4] appears, read: RAW264.7, RAW 264.7 cells, LPS 100 ng/ml, 20 hours, PGE2 EIA kit.

Consider `CC(C)=CCC/C(C)=C/CO` [geraniol], for which the IC50 was 403 µM in data set [1] (setting [3]) and 372 µM in data set [2] (setting [4]).
On to `CCCC=C1OC(=O)c2ccccc21` [butylidene phthalide], for which the IC50 in data set [1] (RAW264.7, 20 h) came to 406 µM; in data set [2] (RAW264.7, 20 h), 49.6 µM. In addition, the “RAW264.7 cell viability by MTT assay” value in the data set with RAW264.7 cell is “did not affect cell viability”.
In the case of `CC(C)=CCCC(C)CCO` (stereo not shown) [citronellol], the values for the IC50 in data set [1] (setting [3]) and in data set [2] (setting [4]) were 295 µM and 26.9 µM, respectively.
